Patent publication US20100137206A1, “NOVEL LIGAND GUIDED BLOCK COPOLYMERS FOR TARGETED DRUG DELIVERY” (priority 2006, published 2010)
Where two headings read alike, the source gives them in different places.

Test system: B16-F10 cells
Test: MTT cytotoxicity of DOX-containing micelles
Type: cell-based
Conditions: for IC50: read-out: IC50 (μM) of DOX equivalent
Method: Briefly, 4000 cells were plated in 96-well plates and incubated for 24 h to allow the cells to attach. […] Living cells metabolize MTT to a dark formazan dye. The cell culture media was removed by aspiration and replaced with 200 μL DMSO. The absorbance was measured spectrophotometrically using a microplate reader at dual wavelengths of 570 nm and 650 nm. The data reported represent the means of triplicate measurement.

Molecule	IC50 (24 h incubation) [µM]	IC50 (48 h incubation) [µM]	fold difference of IC50 in comparison to free DOX (24 h incubation) [fold]	fold difference of IC50 in comparison to free DOX (48 h incubation) [fold]
COc1cccc2c1C(=O)c1c(O)c3c(c(O)c1C2=O)C[C@@](O)(C(=O)CO)C[C@@H]3O[C@H]1C[C@H](N)[C@H](O)[C@H](C)O1 [Free DOX, doxorubicin, reference compound]	0.417	0.204		
doxorubicin-conjugated acetal polyethylene oxide)-block-poly(caprolactone) [Acetal-PEO-b-PCL(DOX)]	5.95	1.28	14.3	6.3
